{"source": "patent US20240228504A1", "about": "“SUBSTITUTED TRICYCLIC AMIDES, ANALOGUES THEREOF, AND METHODS USING SAME” (Arbutus Biopharma Corporation, priority 2020, published 2024)", "tested_on": "HBV rcDNA in HepDE19 cells", "assay": "HepDE19 assay with bDNA quantitation of HBV rcDNA", "format": "cell-based, hepatitis B virus", "details": "Hepatitis B virus, HepDE19, HepDE19 assay, inhibition of rcDNA formation, bDNA quantitation; read-out: DE-19bDNA EC50"}
{"smiles": "CN(C(=O)c1cccc(Oc2cccc(F)c2)c1)[C@@H]1COCc2[nH]c(=O)c3cc(F)c(F)cc3c21", "note": "[Compound 322, (S)-N-(8,9-Difluoro-6-oxo-1,4,5,6-tetrahydro-2H-pyrano[3,4-c]isoquinolin-1-yl)-3-(3-fluorophenoxy)-N-methylbenzamide]", "values": [{"measurement": "EC50", "value": 8100, "unit": "nM"}]}
{"smiles": "COc1ccc2[nH]c(C(=O)N(C)[C@@H]3COCc4[nH]c(=O)c5cc(F)c(F)cc5c43)cc2c1", "note": "[Compound 324, (S)-N-(8,9-Difluoro-6-oxo-1,4,5,6-tetrahydro-2H-pyrano[3,4-c]isoquinolin-1-yl)-5-methoxy-N-methyl-1H-indole-2-carboxamide]", "values": [{"measurement": "EC50", "value": 70, "unit": "nM"}]}
{"smiles": "CN(C(=O)c1cc2cc(Cl)ccc2[nH]1)[C@@H]1COCc2[nH]c(=O)c3cc(F)c(F)cc3c21", "note": "[Compound 325, (S)-5-chloro-N-(8,9-Difluoro-6-oxo-1,4,5,6-tetrahydro-2H-pyrano[3,4-c]isoquinolin-1-yl)-N-methyl-1H-indole-2-carboxamide]", "values": [{"measurement": "EC50", "value": 20, "unit": "nM"}]}
{"smiles": "Cc1ccc2[nH]c(C(=O)N(C)[C@@H]3COCc4[nH]c(=O)c5cc(F)c(F)cc5c43)cc2c1", "note": "[Compound 326, (S)-N-(8,9-Difluoro-6-oxo-1,4,5,6-tetrahydro-2H-pyrano[3,4-c]isoquinolin-1-yl)-N,5-dimethyl-1H-indole-2-carboxamide]", "values": [{"measurement": "EC50", "value": 2500, "unit": "nM"}]}
{"smiles": "CN(C(=O)c1cc2cc(OC(F)(F)F)ccc2[nH]1)[C@@H]1COCc2[nH]c(=O)c3cc(F)c(F)cc3c21", "note": "[Compound 327, (S)-N-(8,9-Difluoro-6-oxo-1,4,5,6-tetrahydro-2H-pyrano[3,4-c]isoquinolin-1-yl)-N-methyl-5-(trifluoromethoxy)-1H-indole-2-carboxamide]", "values": [{"measurement": "EC50", "value": 1200, "unit": "nM"}]}
{"smiles": "CCc1ccc2[nH]c(C(=O)N(C)[C@@H]3COCc4[nH]c(=O)c5cc(F)c(F)cc5c43)cc2c1", "note": "[Compound 328, (S)-N-(8,9-Difluoro-6-oxo-1,4,5,6-tetrahydro-2H-pyrano[3,4-c]isoquinolin-1-yl)-5-ethyl-N-methyl-1H-indole-2-carboxamide]", "values": [{"measurement": "EC50", "value": 3100, "unit": "nM"}]}
{"smiles": "COc1cccc2[nH]c(C(=O)N(C)[C@@H]3COCc4[nH]c(=O)c5cc(F)c(F)cc5c43)cc12", "note": "[Compound 329, (S)-N-(8,9-Difluoro-6-oxo-1,4,5,6-tetrahydro-2H-pyrano[3,4-c]isoquinolin-1-yl)-4-methoxy-N-methyl-1H-indole-2-carboxamide]", "values": [{"measurement": "EC50", "value": 260, "unit": "nM"}]}
{"smiles": "Cc1cccc2[nH]c(C(=O)N(C)[C@@H]3COCc4[nH]c(=O)c5cc(F)c(F)cc5c43)cc12", "note": "[Compound 330, (S)-N-(8,9-Difluoro-6-oxo-1,4,5,6-tetrahydro-2H-pyrano[3,4-c]isoquinolin-1-yl)-N,4-dimethyl-1H-indole-2-carboxamide]", "values": [{"measurement": "EC50", "value": 10, "unit": "nM"}]}
{"smiles": "CCC(CC)C(=O)OC1OC[C@@H](N(C)C(=O)c2cc3cc(F)c(F)cc3[nH]2)c2c1[nH]c(=O)c1cc(F)c(F)cc21", "note": "(stereo partly drawn) [Compound 331, (1S)-1-(5,6-Difluoro-N-methyl-1H-indole-2-carboxamido)-8,9-difluoro-6-oxo-1,4,5,6-tetrahydro-2H-pyrano[3,4-c]isoquinolin-4-yl 2-ethylbutanoate]", "values": [{"measurement": "EC50", "value": 10, "unit": "nM"}]}
{"smiles": "CN(C(=O)c1cc2oc(Cl)cc2[nH]1)[C@@H]1COCc2[nH]c(=O)c3cc(F)c(F)cc3c21", "note": "[Compound 332, (S)-2-Chloro-N-(8,9-difluoro-6-oxo-1,4,5,6-tetrahydro-2H-pyrano[3,4-c]isoquinolin-1-yl)-N-methyl-4H-furo[3,2-b]pyrrole-5-carboxamide]", "values": [{"measurement": "EC50", "value": 40, "unit": "nM"}]}
{"smiles": "CN(C(=O)c1cc2c(C#N)cc(F)cc2[nH]1)[C@@H]1COCc2[nH]c(=O)c3cc(F)c(F)cc3c21", "note": "[Compound 341, (S)-4-Cyano-N-(8,9-difluoro-6-oxo-1,4,5,6-tetrahydro-2H-pyrano[3,4-c]isoquinolin-1-yl)-6-fluoro-N-methyl-1H-indole-2-carboxamide]", "values": [{"measurement": "EC50", "value": 30, "unit": "nM"}]}
{"smiles": "CCc1cc(F)cc2[nH]c(C(=O)N(C)[C@@H]3COCc4[nH]c(=O)c5cc(F)c(F)cc5c43)cc12", "note": "[Compound 342, (S)-N-(8,9-Difluoro-6-oxo-1,4,5,6-tetrahydro-2H-pyrano[3,4-c]isoquinolin-1-yl)-4-ethyl-6-fluoro-N-methyl-1H-indole-2-carboxamide]", "values": [{"measurement": "EC50", "value": 10, "unit": "nM"}]}
{"smiles": "CN(C(=O)c1cc2c(Cl)cc(F)cc2[nH]1)[C@@H]1COCc2[nH]c(=O)c3cc(F)c(F)cc3c21", "note": "[Compound 343, (S)-4-Chloro-N-(8,9-difluoro-6-oxo-1,4,5,6-tetrahydro-2H-pyrano[3,4-c]isoquinolin-1-yl)-6-fluoro-N-methyl-1H-indole-2-carboxamide]", "values": [{"measurement": "EC50", "value": 10, "unit": "nM"}]}
{"smiles": "Cc1cc(F)cc2[nH]c(C(=O)N(C)[C@@H]3COCc4[nH]c(=O)c5cc(F)c(F)cc5c43)cc12", "note": "[Compound 344, (S)-N-(8,9-Difluoro-6-oxo-1,4,5,6-tetrahydro-2H-pyrano[3,4-c]isoquinolin-1-yl)-6-fluoro-N,4-dimethyl-1H-indole-2-carboxamide]", "values": [{"measurement": "EC50", "value": 10, "unit": "nM"}]}
{"smiles": "CN(C(=O)c1cc2cc(C#N)ccc2[nH]1)[C@@H]1COCc2[nH]c(=O)c3cc(F)c(F)cc3c21", "note": "[Compound 345, (S)-5-Cyano-N-(8,9-difluoro-6-oxo-1,4,5,6-tetrahydro-2H-pyrano[3,4-c]isoquinolin-1-yl)-N-methyl-1H-indole-2-carboxamide]", "values": [{"measurement": "EC50", "value": 30, "unit": "nM"}]}
{"smiles": "CN(C(=O)c1cc2cc(S(C)(=O)=O)ccc2[nH]1)[C@@H]1COCc2[nH]c(=O)c3cc(F)c(F)cc3c21", "note": "[Compound 346, (S)-N-(8,9-Difluoro-6-oxo-1,4,5,6-tetrahydro-2H-pyrano[3,4-c]isoquinolin-1-yl)-N-methyl-5-(methylsulfonyl)-1H-indole-2-carboxamide]", "values": [{"measurement": "EC50", "value": 6700, "unit": "nM"}]}
{"smiles": "CN(C(=O)c1cc2c(Cl)cccc2[nH]1)[C@@H]1COCc2[nH]c(=O)c3cc(F)c(F)cc3c21", "note": "[Compound 347, (S)-4-Chloro-N-(8,9-difluoro-6-oxo-1,4,5,6-tetrahydro-2H-pyrano[3,4-c]isoquinolin-1-yl)-N-methyl-1H-indole-2-carboxamide]", "values": [{"measurement": "EC50", "value": 10, "unit": "nM"}]}
{"smiles": "CN(C(=O)c1cc2ccc(Br)cn2c1)[C@@H]1COCc2[nH]c(=O)c3cc(F)c(F)cc3c21", "note": "[Compound 348, (S)-6-Bromo-N-(8,9-difluoro-6-oxo-1,4,5,6-tetrahydro-2H-pyrano[3,4-c]isoquinolin-1-yl)-N-methylindolizine-2-carboxamide]", "values": [{"measurement": "EC50", "value": 40, "unit": "nM"}]}
{"smiles": "CN(C(=O)c1cc2sc(Cl)cc2[nH]1)[C@@H]1COCc2[nH]c(=O)c3cc(F)c(F)cc3c21", "note": "[Compound 349, (S)-2-Chloro-N-(8,9-difluoro-6-oxo-1,4,5,6-tetrahydro-2H-pyrano[3,4-c]isoquinolin-1-yl)-N-methyl-4H-thieno[3,2-b]pyrrole-5-carboxamide]", "values": [{"measurement": "EC50", "value": 10, "unit": "nM"}]}
{"smiles": "CN(C(=O)c1cc2scc(Cl)c2[nH]1)[C@@H]1COCc2[nH]c(=O)c3cc(F)c(F)cc3c21", "note": "[Compound 350, (S)-3-chloro-N-(8,9-difluoro-6-oxo-1,4,5,6-tetrahydro-2H-pyrano[3,4-c]isoquinolin-1-yl)-N-methyl-4H-thieno[3,2-b]pyrrole-5-carboxamide]", "values": [{"measurement": "EC50", "value": 70, "unit": "nM"}]}
{"smiles": "CN(C(=O)c1cc2c(CO)cc(F)cc2[nH]1)[C@@H]1COCc2[nH]c(=O)c3cc(F)c(F)cc3c21", "note": "[Compound 355, (S)-N-(8,9-Difluoro-6-oxo-1,4,5,6-tetrahydro-2H-pyrano[3,4-c]isoquinolin-1-yl)-6-fluoro-4-(hydroxymethyl)-N-methyl-1H-indole-2-carboxamide]", "values": [{"measurement": "EC50", "value": 20, "unit": "nM"}]}
{"smiles": "CN(C(=O)c1cc2cncc(Br)c2o1)[C@@H]1COCc2[nH]c(=O)c3cc(F)c(F)cc3c21", "note": "[Compound 356, (S)-7-Bromo-N-(8,9-difluoro-6-oxo-1,4,5,6-tetrahydro-2H-pyrano[3,4-c]isoquinolin-1-yl)-N-methylfuro[3,2-c]pyridine-2-carboxamide]", "values": [{"measurement": "EC50", "value": 1500, "unit": "nM"}]}
{"smiles": "CN(C(=O)c1ccc2c(Cl)nn(C(F)F)c2c1)[C@@H]1COCc2[nH]c(=O)c3cc(F)c(F)cc3c21", "note": "[Compound 357, (S)-3-Chloro-N-(8,9-difluoro-6-oxo-1,4,5,6-tetrahydro-2H-pyrano[3,4-c]isoquinolin-1-yl)-1-(difluoromethyl)-N-methyl-1H-indazole-6-carboxamide]", "values": [{"measurement": "EC50", "value": 30, "unit": "nM"}]}
{"smiles": "CN(C(=O)c1ccc2c(Cl)n(C(F)F)nc2c1)[C@@H]1COCc2[nH]c(=O)c3cc(F)c(F)cc3c21", "note": "[Compound 358, (S)-3-Chloro-N-(8,9-difluoro-6-oxo-1,4,5,6-tetrahydro-2H-pyrano[3,4-c]isoquinolin-1-yl)-2-(difluoromethyl)-N-methyl-2H-indazole-6-carboxamide]", "values": [{"measurement": "EC50", "value": 680, "unit": "nM"}]}
{"smiles": "CN(C(=O)c1ccc2c(c1)c(Cl)nn2C(F)F)[C@@H]1COCc2[nH]c(=O)c3cc(F)c(F)cc3c21", "note": "[Compound 359, (S)-3-chloro-N-(8,9-difluoro-6-oxo-1,4,5,6-tetrahydro-2H-pyrano[3,4-c]isoquinolin-1-yl)-1-(difluoromethyl)-N-methyl-1H-indazole-5-carboxamide]", "values": [{"measurement": "EC50", "value": 10, "unit": "nM"}]}
{"smiles": "CN(C(=O)c1ccc2nn(C(F)F)c(Cl)c2c1)[C@@H]1COCc2[nH]c(=O)c3cc(F)c(F)cc3c21", "note": "[Compound 360, (S)-3-Chloro-N-(8,9-difluoro-6-oxo-1,4,5,6-tetrahydro-2H-pyrano[3,4-c]isoquinolin-1-yl)-2-(difluoromethyl)-N-methyl-2H-indazole-5-carboxamide]", "values": [{"measurement": "EC50", "value": 120, "unit": "nM"}]}
{"smiles": "CN(C(=O)c1ccc(Cl)c(Cl)c1)[C@@H]1COCc2[nH]c(=O)c3cc(F)c(F)cc3c21", "note": "[Compound 361, (S)-3,4-Dichloro-N-(8,9-difluoro-6-oxo-1,4,5,6-tetrahydro-2H-pyrano[3,4-c]isoquinolin-1-yl)-N-methylbenzamide]", "values": [{"measurement": "EC50", "value": 10, "unit": "nM"}]}
{"smiles": "CN(C(=O)c1cc2c(NS(C)(=O)=O)cc(F)cc2[nH]1)[C@@H]1COCc2[nH]c(=O)c3cc(F)c(F)cc3c21", "note": "[Compound 362, (S)-N-(8,9-Difluoro-6-oxo-1,4,5,6-tetrahydro-2H-pyrano[3,4-c]isoquinolin-1-yl)-6-fluoro-N-methyl-4-(methylsulfonamido)-1H-indole-2-carboxamide]", "values": [{"measurement": "EC50", "value": 14000, "unit": "nM"}]}
{"smiles": "CN(C(=O)c1cc2c(OC(F)(F)F)cccc2[nH]1)[C@@H]1COCc2[nH]c(=O)c3cc(F)c(F)cc3c21", "note": "[Compound 363, (S)-N-(8,9-Difluoro-6-oxo-1,4,5,6-tetrahydro-2H-pyrano[3,4-c]isoquinolin-1-yl)-N-methyl-4-(trifluoromethoxy)-1H-indole-2-carboxamide]", "values": [{"measurement": "EC50", "value": 20, "unit": "nM"}]}
